Experimental data as given in the supplement of paper PMC10307832.

Key:
Assay in all cases: relative viability (nuclei count vs DMSO), 5 days (fraction); higher = more cells survive
Shikonin + Crizotinib = compound: CC(C)=CC[C@@H](O)C1=CC(=O)c2c(O)ccc(O)c2C1=O [Shikonin] + C[C@@H](Oc1cc(-c2cnn(C3CCNCC3)c2)cnc1N)c1c(Cl)ccc(F)c1Cl [Crizotinib] (partner 1 µM)
In short: (§1)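 For relative viability, nuclei counts in treated wells were divided by those in vehicle wells. Lung cancer cell lines had been pin-tool dosed in 1536-well plates the day after seeding and cultured for 5 days, then fixed and stained in one step (final 0.05% Triton X-100, 1% formaldehyde, 1 ug/ml Hoechst) and imaged at 4×. Doses were one drug alone or a fixed anchor-drug dose plus five library-drug doses (not always all listed) in √10 steps, and values are duplicate-plate medians.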

Shikonin + Bortezomib = compound: CC(C)=CC[C@@H](O)C1=CC(=O)c2c(O)ccc(O)c2C1=O [Shikonin] + CC(C)C[C@H](NC(=O)[C@H](Cc1ccccc1)NC(=O)c1cnccn1)B(O)O [Bortezomib] (partner 0.002 µM)
In short: as §1

[1] = compound: CC(C)N(CCCNC(=O)Nc1ccc(C(C)(C)C)cc1)C[C@H]1O[C@@H](n2ccc3c(N)ncnc32)[C@H](O)[C@@H]1O + CC(C)C[C@H](NC(=O)[C@H](Cc1ccccc1)NC(=O)c1cnccn1)B(O)O [Bortezomib] (partner 0.002 µM)
In short: as §1

[2] = compound: CC(C)N(CCCNC(=O)Nc1ccc(C(C)(C)C)cc1)C[C@H]1O[C@@H](n2ccc3c(N)ncnc32)[C@H](O)[C@@H]1O + NC(=O)Nc1cc(-c2cccc(F)c2)sc1C(=O)N[C@H]1CCCNC1 [AZD7762] (partner 0.2 µM)
In short: as §1

| Cell Line | relative viability (Shikonin + Crizotinib; first compound 0.01 µM) | relative viability (Shikonin + Crizotinib; first compound 0.1 µM) | relative viability (Shikonin + Crizotinib; first compound 0.3162 µM) | relative viability (Shikonin + Crizotinib; first compound 1 µM) | relative viability (Shikonin + Bortezomib; first compound 0.01 µM) | relative viability (Shikonin + Bortezomib; first compound 0.1 µM) | relative viability (Shikonin + Bortezomib; first compound 0.3162 µM) | relative viability (Shikonin + Bortezomib; first compound 1 µM) | relative viability ([1]; first compound 0.08 µM) | relative viability ([1]; first compound 0.253 µM) | relative viability ([1]; first compound 0.8 µM) | relative viability ([1]; first compound 2.53 µM) | relative viability ([1]; first compound 8 µM) | relative viability ([2]; first compound 0.08 µM) | relative viability ([2]; first compound 0.253 µM) | relative viability ([2]; first compound 0.8 µM) | relative viability ([2]; first compound 2.53 µM) | relative viability ([2]; first compound 8 µM) |
| --- | --- | --- | --- | --- | --- | --- | --- | --- | --- | --- | --- | --- | --- | --- | --- | --- | --- | --- |
| NCI-H2126 | 1.08 | 1.21 | 1.1 | 1.04 | 1.16 | 1.23 | 1.1 | 1.19 | 1.03 | 1.12 | 1.14 | 1.08 | 1.05 | 0.913 | 1.01 | 0.956 | 0.988 | 0.965 |
| BEN | 0.952 | 0.974 | 0.975 | 0.998 | 0.826 | 1.04 | 0.748 | 0.849 | 0.934 | 0.762 | 0.776 | 0.662 | 0.57 | 0.736 | 0.746 | 0.716 | 0.598 | 0.795 |
| LCLC-103H | 0.953 | 1 | 1.13 | 1.06 | 1.12 | 1.12 | 1.07 | 1.25 | 1.09 | 1 | 0.686 | 1.04 | 1.02 | 0.745 | 0.805 | 0.686 | 0.701 | 0.727 |
| EKVX | 1.05 | 1.2 | 0.996 | 1.07 | 0.995 | 1.81 | 1.28 | 1.18 | 1.06 | 1.24 | 1.08 | 0.993 | 0.786 | 0.7 | 0.716 | 0.702 | 0.767 | 0.621 |
| LXF-289 | 0.856 | 0.825 | 0.773 | 0.844 | 1.1 | 1.03 | 1 | 1.04 | 1 | 0.993 | 0.719 | 1.03 | 0.98 | 1.1 | 1.1 | 1.09 | 1.12 | 1 |
| ABC-1 | 1.72 | 1.15 | 1.13 | 0.531 | 0.279 | 0.31 | 0.274 | 0.254 | 0.28 | 0.249 |  | 0.344 | 0.325 | 0.933 | 0.954 |  | 1.02 | 0.729 |
| NCI-H727 | 1.02 | 0.991 | 0.727 | 0.589 | 0.862 | 0.933 | 0.973 | 0.755 | 0.829 | 0.696 | 0.583 | 0.935 | 0.734 | 0.634 | 0.624 | 0.649 | 0.328 | 0.694 |
| NCI-H2087 | 1.07 | 0.781 | 0.923 | 0.824 | 0.951 | 0.888 | 1.14 | 0.898 | 0.861 | 0.841 | 0.25 | 0.99 | 0.857 | 1.31 | 1.26 | 1.51 | 1.38 | 1.29 |
| LC-2-ad | 0.404 | 0.45 | 0.423 | 0.364 | 1.08 | 1.05 | 1.07 | 1.02 | 0.968 | 1.2 | 0.65 | 0.978 | 0.878 | 0.834 | 0.802 | 0.677 | 0.787 | 0.771 |
| NCI-H1355 | 1.16 | 1.31 | 1.19 | 1.12 | 1.24 | 1.25 | 1.22 | 1.23 | 1.15 | 1.2 |  | 1.22 | 1.08 | 0.703 | 0.68 | 0.642 | 0.75 | 0.695 |
| H3255 | 0.945 | 1 | 0.958 | 0.915 | 0.755 | 1.09 | 0.92 | 1.03 | 0.867 | 0.618 | 0.406 | 0.638 | 0.747 | 0.922 | 0.864 | 0.827 | 0.823 | 0.678 |
| NCI-H1734 | 0.665 | 0.769 | 0.717 | 0.632 | 1.09 | 0.999 | 0.819 | 0.909 | 0.701 | 0.921 | 0.355 | 0.973 | 0.847 | 0.546 | 0.441 | 0.634 | 0.565 | 0.466 |
| HOP-62 | 0.61 | 0.95 | 0.32 | 1.02 | 0.958 | 0.715 | 0.875 | 0.902 | 0.599 | 0.854 | 0.132 | 0.605 | 0.361 | 0.681 | 0.51 | 0.517 | 0.777 | 0.322 |
| LOU-NH91 | 0.737 | 0.686 | 0.775 | 0.737 | 0.533 | 0.469 | 0.445 | 0.535 | 0.442 | 0.449 |  | 0.421 | 0.608 | 0.751 | 0.697 |  | 0.763 | 0.767 |
| ChaGo-K-1 | 1.07 | 1.19 | 1.11 | 1.21 | 0.957 | 1.35 | 0.911 | 1.53 | 1.08 | 0.886 | 0.87 | 1.01 | 1.08 | 0.881 | 0.936 | 0.858 | 0.863 | 0.79 |
| NCI-H23 | 0.576 | 0.489 | 0.515 | 0.502 | 1.11 | 0.953 | 1.13 | 1.13 | 0.837 |  | 0.523 | 0.94 | 1.17 | 0.252 |  | 0.226 | 0.201 | 0.305 |
| RERF-LC-KJ | 0.945 | 0.91 | 0.829 | 0.899 | 1.08 | 1.19 | 1.28 | 0.986 | 0.97 | 1.15 | 1.09 | 1.04 | 0.971 | 1.09 | 0.954 | 0.867 | 0.981 | 0.84 |
| NCI-H1437 | 1.02 | 1.17 | 0.883 | 0.993 | 0.643 | 0.562 | 0.527 | 0.46 | 0.526 | 0.417 | 0.309 | 0.423 | 0.536 | 1.13 | 1.06 | 1.15 | 1.07 | 1.14 |
